Results reported in PMC3063099 (Xenobiotica; the fate of foreign compounds in biological …, 2010).
Where two headings read alike, the source gives them in different places.

Experiments:
CYP3A4 wild type [1] = biological target: T1, CYP3A4 wild type (Homo sapiens, UniProt P08684); details: pH 7.4
CYP3A4 mutant F213W [2] = biological target: T2, CYP3A4 mutant F213W (Homo sapiens, UniProt P08684, F213W); details: pH 7.4
CYP3A4 mutant F304W [3] = biological target: T3, CYP3A4 mutant F304W (Homo sapiens, UniProt P08684, F304W); details: pH 7.4
[4] = biological target: T4, CYP3A4 mutant L211F/D214E (Homo sapiens, UniProt P08684, D214E/L211F); details: pH 7.4
CYP3A4 wild type [5] = biological target: T1, CYP3A4 wild type; assay: Absorbance titration, substrate-induced spin shift; details: for Kd: human, pH 7.4; for nH (Hill coefficient): Hill equation fit
CYP3A4 mutant F213W [6] = biological target: T2, CYP3A4 mutant F213W; assay: Absorbance titration, substrate-induced spin shift; details: for nH (Hill coefficient): Hill equation fit; for Kd: human, pH 7.4
CYP3A4 mutant F304W [7] = biological target: T3, CYP3A4 mutant F304W; assay: Absorbance titration, substrate-induced spin shift; details: for nH (Hill coefficient): Hill equation fit; for Kd: human, pH 7.4
[8] = biological target: T4, CYP3A4 mutant L211F/D214E; assay: Absorbance titration, substrate-induced spin shift; details: for nH (Hill coefficient): Hill equation fit; for Kd: human, pH 7.4
CYP3A4 wild type [9] = biological target: T1, CYP3A4 wild type; assay: Titration-by-dilution monitored by FRET; format: binding; details: for Efficiency of FRET: wild type
CYP3A4 mutant F213W [10] = biological target: T2, CYP3A4 mutant F213W; assay: Titration-by-dilution monitored by FRET; format: binding; details: for Efficiency of FRET: F213W
CYP3A4 mutant F304W [11] = biological target: T3, CYP3A4 mutant F304W; assay: Titration-by-dilution monitored by FRET; format: binding; details: for Efficiency of FRET: F304W
[12] = biological target: T4, CYP3A4 mutant L211F/D214E; assay: Titration-by-dilution monitored by FRET; format: binding; details: for Efficiency of FRET: L211F/D214E
CYP3A4 wild type [13] = biological target: T1, CYP3A4 wild type; assay: Titration-by-dilution at excess substrate monitored by spin shift; format: binding
CYP3A4 mutant F213W [14] = biological target: T2, CYP3A4 mutant F213W; assay: as above; format: binding
CYP3A4 mutant F304W [15] = biological target: T3, CYP3A4 mutant F304W; assay: as above; format: binding
[16] = biological target: T4, CYP3A4 mutant L211F/D214E; assay: as above; format: binding
[17] = human, CYP3A4 wild type enzyme in buffer, pH 7.4
[18] = equimolar enzyme-substrate mixture

T4 sequence (P08684 whole entry L211F/D214E): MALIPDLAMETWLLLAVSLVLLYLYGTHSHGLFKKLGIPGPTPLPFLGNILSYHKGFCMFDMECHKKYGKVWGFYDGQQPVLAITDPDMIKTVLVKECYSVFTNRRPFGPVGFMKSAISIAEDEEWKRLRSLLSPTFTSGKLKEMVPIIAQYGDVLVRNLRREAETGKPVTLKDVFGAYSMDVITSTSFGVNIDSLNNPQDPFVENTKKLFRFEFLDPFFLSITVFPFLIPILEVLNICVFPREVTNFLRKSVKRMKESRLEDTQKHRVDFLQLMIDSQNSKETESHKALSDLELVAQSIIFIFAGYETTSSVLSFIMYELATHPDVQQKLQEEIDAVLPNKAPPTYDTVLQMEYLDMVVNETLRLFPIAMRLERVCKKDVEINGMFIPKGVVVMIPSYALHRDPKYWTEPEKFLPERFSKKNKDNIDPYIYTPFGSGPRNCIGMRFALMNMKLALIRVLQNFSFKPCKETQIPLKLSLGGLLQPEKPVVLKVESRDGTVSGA
T2 sequence (P08684 whole entry F213W): as the sequence (P08684 whole entry L211F/D214E) above, with F211L, F213W, E214D counted along it
T3 sequence (P08684 whole entry F304W): as the sequence (P08684 whole entry L211F/D214E) above, with F211L, E214D, F304W counted along it
T1 sequence (P08684 whole entry): as the sequence (P08684 whole entry L211F/D214E) above, with F211L, E214D counted along it

## O=c1cc(-c2ccccc2)oc2c1ccc1ccccc12 [ANF, α-naphthoflavone]
CYP3A4 wild type [1]
  Δhmax, amplitude of the substrate-induced spin shift: 40.0 ± 2.5%
CYP3A4 mutant F213W [2]
  Δhmax, amplitude of the substrate-induced spin shift: 33.5 ± 2.1%
CYP3A4 mutant F304W [3]
  Δhmax, amplitude of the substrate-induced spin shift: 36.0 ± 5.2%
[4]
  Δhmax, amplitude of the substrate-induced spin shift: 27.9 ± 2.2%
CYP3A4 wild type [5]; CYP3A4 wild type enzyme in buffer
  Kd: 3.66 ± 0.7 µM
CYP3A4 wild type [5]; wild type, pH 7.4, 25 °C
  nH (Hill coefficient): 2.04 ± 0.30
CYP3A4 mutant F213W [6]; F213W, pH 7.4, 25 °C
  nH (Hill coefficient): 1.52 ± 0.30
CYP3A4 mutant F213W [6]; CYP3A4 mutant F213W enzyme in buffer
  Kd: 3.5 ± 1.36 µM
CYP3A4 mutant F304W [7]; F304W, pH 7.4, 25 °C
  nH (Hill coefficient): 2.10 ± 0.20
CYP3A4 mutant F304W [7]; CYP3A4 mutant F304W enzyme in buffer
  Kd: 3.63 ± 1.46 µM
[8]; L211F/D214E, pH 7.4, 25 °C
  nH (Hill coefficient): 1.68 ± 0.16
[8]; CYP3A4 mutant L211F/D214E enzyme in buffer
  Kd: 3.67 ± 1.16 µM

## OCCCCc1ccc2ccc3cccc4ccc1c2c34 [1-PB, 1-pyrenebutanol]
CYP3A4 wild type [9]
  Kd: 0.25 ± 0.11 µM
CYP3A4 wild type [9]; [17]
  Kd: 5 ± 1.1 µM
CYP3A4 wild type [9]; [18]
  Efficiency of FRET: 95.2 ± 5.7%
CYP3A4 wild type [9]; excess substrate (1:4)
  Efficiency of FRET: 108.0 ± 1.2%
CYP3A4 mutant F213W [10]; [18]
  Efficiency of FRET: 80.8 ± 26.4%
CYP3A4 mutant F213W [10]; excess substrate (1:5)
  Efficiency of FRET: 109.0 ± 2.0%
CYP3A4 mutant F213W [10]; KD1, F213W, equimolar enzyme-substrate mixture, FRET, 0.6 mg/ml HPCD
  Kd: 0.07 ± 0.04 µM
CYP3A4 mutant F304W [11]; [18]
  Efficiency of FRET: 99.6 ± 7.8%
CYP3A4 mutant F304W [11]; excess substrate (1:6)
  Efficiency of FRET: 109.0 ± 1.6%
CYP3A4 mutant F304W [11]; KD1, F304W, equimolar enzyme-substrate mixture, FRET, 0.6 mg/ml HPCD
  Kd: 0.26 ± 0.08 µM
[12]; KD1, L211F/D214E, equimolar enzyme-substrate mixture, FRET, 0.6 mg/ml HPCD
  Kd: 0.82 ± 0.43 µM
[12]; [18]
  Efficiency of FRET: 108.4 ± 12.9%
[12]; excess substrate (1:6)
  Efficiency of FRET: 83.4 ± 16.4%
CYP3A4 wild type [13]; [17]
  Kd: 10.2 ± 1.2 µM
CYP3A4 wild type [13]; wild type, dilution at excess substrate (1:5)
  Δhmax, maximal amplitude of the spin shift deduced from fitting: 49.7 ± 7.3%
CYP3A4 mutant F213W [14]; F213W, dilution at excess substrate (1:5)
  Δhmax, maximal amplitude of the spin shift deduced from fitting: 40.0 ± 16%
CYP3A4 mutant F213W [14]; human, CYP3A4 mutant F213W enzyme in buffer, pH 7.4
  Kd: 14.4 ± 1.5 µM
CYP3A4 mutant F304W [15]; F304W, dilution at excess substrate (1:5)
  Δhmax, maximal amplitude of the spin shift deduced from fitting: 23.2 ± 14.0%
CYP3A4 mutant F304W [15]; human, CYP3A4 mutant F304W enzyme in buffer, pH 7.4
  Kd: 11.4 ± 1.1 µM
[16]; L211F/D214E, dilution at excess substrate (1:5)
  Δhmax, maximal amplitude of the spin shift deduced from fitting: 18.2 ± 7.1%
[16]; human, CYP3A4 mutant L211F/D214E enzyme in buffer, pH 7.4
  Kd: 7.3 ± 2.9 µM
CYP3A4 wild type [5]; 0.1 m na-hepes
  Kd: 11.7 ± 2.4 µM
CYP3A4 wild type [5]
  Kd: 12.6 µM
CYP3A4 wild type [5]; wild type, pH 7.4, 25 °C
  nH (Hill coefficient): 1.67 ± 0.18
CYP3A4 wild type [5]; wild type, pH 7.4, 25 °C, listed as 1-pyrenebutanol
  nH (Hill coefficient): around 1.7
CYP3A4 wild type [5]; wild type, absorbance titration, pH 7.4, 25 °C
  Δhmax, amplitude of the substrate-induced spin shift: 46.7 ± 4.9%
CYP3A4 wild type [5]; wild type, fit to improved sequential model
  FES, fraction of total spin shift caused by the binary complex ES: 0
CYP3A4 mutant F213W [6]; F213W, pH 7.4, 25 °C
  nH (Hill coefficient): 1.07 ± 0.16
CYP3A4 mutant F213W [6]; F213W, pH 7.4, 25 °C, listed as 1-pyrenebutanol
  nH (Hill coefficient): ≤ 1.1
CYP3A4 mutant F213W [6]; F213W, absorbance titration, pH 7.4, 25 °C
  Δhmax, amplitude of the substrate-induced spin shift: 57.0 ± 5.9%
CYP3A4 mutant F213W [6]; F213W, fit to improved sequential model, KD1 fixed
  FES, fraction of total spin shift caused by the binary complex ES: 7.9 ±1.0%
CYP3A4 mutant F213W [6]; 0.1 m na-hepes
  Kd: 12.6 ± 4.6 µM
CYP3A4 mutant F304W [7]; F304W, pH 7.4, 25 °C
  nH (Hill coefficient): 1.07 ± 0.12
CYP3A4 mutant F304W [7]; F304W, pH 7.4, 25 °C, listed as 1-pyrenebutanol
  nH (Hill coefficient): ≤ 1.1
CYP3A4 mutant F304W [7]; F304W, absorbance titration, pH 7.4, 25 °C
  Δhmax, amplitude of the substrate-induced spin shift: 57.7 ± 5.6%
CYP3A4 mutant F304W [7]; F304W, fit to improved sequential model, KD1 fixed
  FES, fraction of total spin shift caused by the binary complex ES: 15.1 ± 0.8%
CYP3A4 mutant F304W [7]; 0.1 m na-hepes
  Kd: 10.7 ± 2 µM
[8]; L211F/D214E, pH 7.4, 25 °C
  nH (Hill coefficient): 1.07 ± 0.17
[8]; L211F/D214E, pH 7.4, 25 °C, listed as 1-pyrenebutanol
  nH (Hill coefficient): ≤ 1.1
[8]; L211F/D214E, absorbance titration, pH 7.4, 25 °C
  Δhmax, amplitude of the substrate-induced spin shift: 39.4 ± 5.1%
[8]; L211F/D214E, fit to improved sequential model, KD1 fixed
  FES, fraction of total spin shift caused by the binary complex ES: 21.0 ± 5.7%
[8]; 0.1 m na-hepes
  Kd: 12.1 ± 1.8 µM
